Assay [1] addresses T1, wt human NUAK1, full length (Homo sapiens, UniProt O60285).
T1 construct: 8 nM wt human NUAK1, full length (ThermoFisher/USA); purchased ThermoFisher
T1 sequence (O60285 1-661): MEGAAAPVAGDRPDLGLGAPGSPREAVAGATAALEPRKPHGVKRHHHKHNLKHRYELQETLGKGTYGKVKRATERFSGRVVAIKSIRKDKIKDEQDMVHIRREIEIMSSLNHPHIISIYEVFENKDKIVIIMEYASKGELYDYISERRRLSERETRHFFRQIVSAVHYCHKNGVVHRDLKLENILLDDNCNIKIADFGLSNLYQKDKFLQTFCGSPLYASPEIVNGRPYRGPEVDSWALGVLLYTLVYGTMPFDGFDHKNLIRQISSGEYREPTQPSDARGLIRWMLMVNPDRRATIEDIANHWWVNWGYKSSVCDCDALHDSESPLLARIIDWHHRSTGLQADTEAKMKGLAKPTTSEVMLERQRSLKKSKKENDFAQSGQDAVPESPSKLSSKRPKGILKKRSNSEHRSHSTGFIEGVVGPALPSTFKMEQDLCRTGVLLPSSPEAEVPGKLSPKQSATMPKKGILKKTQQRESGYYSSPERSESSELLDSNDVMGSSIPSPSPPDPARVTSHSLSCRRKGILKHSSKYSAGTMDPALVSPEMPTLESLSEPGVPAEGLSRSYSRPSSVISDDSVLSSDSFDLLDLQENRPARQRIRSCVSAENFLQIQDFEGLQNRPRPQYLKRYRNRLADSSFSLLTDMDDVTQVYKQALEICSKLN
Put plainly: TR-FRET LanthaScreen Eu Kinase Binding Assay, NUAK1. The conditions noted are these: read-out: IC50, Activity Toward NUAK1. On the procedure: The basic protocol for TR-FRET LanthaScreen Eu Kinase Binding Assay inhibitor studies were performed as follows. LanthaScreen Kinase Binding Assays (ThermoFisher/USA) to evaluate inhibitors were performed by addition of 5 μL of test compound in corresponding DMSO dilutions/5 μl of kinase/antibody mixture, 5 μL of tracer into 384 well small volume plates. After incubation for 1 hour at room temperature, plates were read. Data analysis of emission ratios was according LanthaScreen Eu Kinase Binding Assay protocol.
Kinase and assay components were adjusted to final concentrations according to kit protocol. For LRRK2: 5 nM wt human LRRK2, catalytic site, or G2019S human LRRK2, catalytic site (ThermoFisher/USA), 2 nM Eu-Anti-GST Antibody, 10 nM Kinase Tracer 236 in 1× Kinase Buffer A. For NUAK1: 8 nM wt human NUAK1, full length (ThermoFisher/USA), 2 nM Eu-Anti-His Antibody, 5 nM Kinase Tracer 236 in 1× Kinase Buffer A.

Assay [2] deals with T2, wt human TYK2, catalytic site (Homo sapiens, UniProt P29597).
T2 construct: wt human TYK2, catalytic site; purchased SignalChem
T2 sequence (P29597 897-1176 limits assumed): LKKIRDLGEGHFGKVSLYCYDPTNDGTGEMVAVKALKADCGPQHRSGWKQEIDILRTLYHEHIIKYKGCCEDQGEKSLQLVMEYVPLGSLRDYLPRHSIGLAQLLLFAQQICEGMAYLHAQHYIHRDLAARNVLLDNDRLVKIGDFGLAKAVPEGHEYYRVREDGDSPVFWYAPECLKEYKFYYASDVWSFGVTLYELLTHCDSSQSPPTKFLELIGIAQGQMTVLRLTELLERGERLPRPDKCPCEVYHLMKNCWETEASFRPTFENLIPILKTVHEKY
Description: HTRF KinEASE assay, TYK2. The conditions noted are these: 1 μM ATP; read-out: IC50, Activity Toward TYK2. In kind it is biochemical. The procedure, abridged:
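HTRF KinEASE-TK readout with 1 μM biotinylated TK substrate in 1× kinase buffer, ≥30 min at room temperature, then antibody/streptavidin-XL665 detection for 60 min. TYK2 at 2 nM with 1 μM ATP; JAK2 at 1 nM with 100 μM ATP. Analysis uses emission ratios.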
On the technique in general: TR-FRET usually uses a lanthanide donor and a delayed reading to cut background.

Assay [3] has as its target T3, wt human JAK1, catalytic site (Homo sapiens, UniProt P23458).
T3 construct: wt human JAK1, catalytic site; purchased ThermoFisher
Put plainly: HTRF KinEASE assay, JAK1. In kind it is biochemical. The following applies: 2.5 μM ATP; read-out: IC50, Activity Toward JAK1. The procedure, abridged:
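Two-step HTRF KinEASE assay: compound, kinase/biotinylated TK substrate and ATP were incubated at least 30 min at room temperature. Antibody plus streptavidin-XL665 was then added and plates were read after 60 min. Inhibition was derived from emission ratios according to the kit protocol.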

Assay [4] has as its target T4, wt human LRRK2, catalytic site (Homo sapiens, UniProt Q5S007).
T4 construct: 5 nM wt human LRRK2, catalytic site; purchased ThermoFisher
Put plainly: TR-FRET LanthaScreen Eu Kinase Binding Assay, LRRK2 wt. The conditions noted are these: one range stated for wt and G2019, read-out: IC50, Activity Toward LRRK2(Wt). The procedure, abridged:
(§1)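 Competitive tracer-displacement TR-FRET, 1 h at room temperature, read as emission ratio. LRRK2 (wt or G2019S catalytic domain) at 5 nM with 2 nM Eu-anti-GST and 10 nM Tracer 236; full-length NUAK1 at 8 nM with 2 nM Eu-anti-His and 5 nM Tracer 236, all final in Kinase Buffer A.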

For assay [5], the target named is T5, G2019S human LRRK2, catalytic site (Homo sapiens, UniProt Q5S007, G2019S).
T5 construct: G2019S human LRRK2, catalytic site; purchased ThermoFisher
T5 sequence (Q5S007 970-2527 G2019S limits assumed): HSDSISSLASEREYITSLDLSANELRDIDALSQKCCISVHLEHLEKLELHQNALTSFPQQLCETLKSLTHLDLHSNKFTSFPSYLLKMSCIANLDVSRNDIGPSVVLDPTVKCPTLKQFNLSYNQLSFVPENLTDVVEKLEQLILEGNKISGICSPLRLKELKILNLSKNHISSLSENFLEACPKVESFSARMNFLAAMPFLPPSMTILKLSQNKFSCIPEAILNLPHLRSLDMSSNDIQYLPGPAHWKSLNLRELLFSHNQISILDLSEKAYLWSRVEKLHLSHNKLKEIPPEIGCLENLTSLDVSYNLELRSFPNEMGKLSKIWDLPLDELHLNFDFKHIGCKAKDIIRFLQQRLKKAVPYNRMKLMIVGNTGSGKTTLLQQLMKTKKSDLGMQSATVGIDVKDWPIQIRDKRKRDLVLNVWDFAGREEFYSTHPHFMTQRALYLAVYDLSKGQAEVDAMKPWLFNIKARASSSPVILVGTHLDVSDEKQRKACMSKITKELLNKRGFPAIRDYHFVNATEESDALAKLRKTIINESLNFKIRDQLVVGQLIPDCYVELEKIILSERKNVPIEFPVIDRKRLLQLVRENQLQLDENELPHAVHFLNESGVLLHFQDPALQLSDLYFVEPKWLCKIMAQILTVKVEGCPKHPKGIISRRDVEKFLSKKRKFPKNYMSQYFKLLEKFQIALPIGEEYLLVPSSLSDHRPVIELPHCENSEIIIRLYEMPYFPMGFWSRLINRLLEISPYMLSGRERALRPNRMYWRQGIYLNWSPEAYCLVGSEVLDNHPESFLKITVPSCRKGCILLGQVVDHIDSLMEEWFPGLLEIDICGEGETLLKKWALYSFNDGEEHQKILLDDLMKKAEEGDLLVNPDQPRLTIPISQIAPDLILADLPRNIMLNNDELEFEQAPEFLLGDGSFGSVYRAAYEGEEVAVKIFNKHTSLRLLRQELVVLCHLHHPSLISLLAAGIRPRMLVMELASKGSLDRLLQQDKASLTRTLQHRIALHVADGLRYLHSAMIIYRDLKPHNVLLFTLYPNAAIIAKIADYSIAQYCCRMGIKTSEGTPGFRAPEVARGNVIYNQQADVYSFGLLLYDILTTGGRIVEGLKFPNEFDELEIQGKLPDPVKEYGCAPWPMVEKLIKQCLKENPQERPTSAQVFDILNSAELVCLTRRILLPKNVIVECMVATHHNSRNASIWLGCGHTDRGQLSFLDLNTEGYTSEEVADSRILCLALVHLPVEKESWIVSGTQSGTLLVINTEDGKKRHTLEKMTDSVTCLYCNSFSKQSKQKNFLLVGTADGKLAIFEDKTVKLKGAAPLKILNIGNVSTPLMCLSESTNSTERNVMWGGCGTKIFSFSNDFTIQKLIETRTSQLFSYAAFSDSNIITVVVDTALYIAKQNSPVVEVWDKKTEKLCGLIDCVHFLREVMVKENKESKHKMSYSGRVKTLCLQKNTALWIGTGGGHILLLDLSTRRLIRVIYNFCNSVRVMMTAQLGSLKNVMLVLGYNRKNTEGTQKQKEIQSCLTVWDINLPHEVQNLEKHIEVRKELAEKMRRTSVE
Description: TR-FRET LanthaScreen Eu Kinase Binding Assay, LRRK2 G2019S. The conditions noted are these: LRRK2(G2019); one range stated for wt and G2019; read-out: IC50, Activity Toward LRRK2(G2019). The procedure, abridged: as §1

pIC50: −log10 of the molar value.

T4 sequence (Q5S007 970-2527 limits assumed): as the sequence (Q5S007 970-2527 G2019S limits assumed) above, with S1050G counted along it
T3 sequence (P23458 875-1153 limits assumed): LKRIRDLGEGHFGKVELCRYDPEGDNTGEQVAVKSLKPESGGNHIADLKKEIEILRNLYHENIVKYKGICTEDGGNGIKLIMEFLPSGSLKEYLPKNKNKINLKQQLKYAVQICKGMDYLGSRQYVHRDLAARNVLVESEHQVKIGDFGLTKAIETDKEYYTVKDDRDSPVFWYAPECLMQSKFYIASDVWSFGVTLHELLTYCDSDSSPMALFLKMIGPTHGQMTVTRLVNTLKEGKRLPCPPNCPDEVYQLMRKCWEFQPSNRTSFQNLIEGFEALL

`CN1CCC(NC(=O)c2ccc(Nc3cn(-c4c(F)cccc4Cl)nc3C(N)=O)cc2)CC1` [compound 35, 1-(2-chloro-6-fluorophenyl)-4-((4-((1-methylpiperidin-4-yl)carbamoyl)phenyl)amino)-1H-pyrazole-3-carboxamide]: the pIC50 (as a rule, the negative decadic logarithm of the IC50, by convention in mol/L) was 6.00 to 7.00 in assay [1]; 7.00 to 8.00 in assay [2]; 7.00 to 8.00 in assay [3]; 7.00 to 8.00 in assay [4]; 7.00 to 8.00 in assay [5].

With `NC(=O)c1nn(-c2c(F)cccc2Cl)cc1Nc1ccc(C(=O)NC2CCCNC2)cc1` (stereo not shown) [compound 38, 1-(2-chloro-6-fluorophenyl)-4-((4-(piperidin-3-ylcarbamoyl)phenyl)amino)-1H-pyrazole-3-carboxamide], the negative-log IC50 (pIC50) in assay [1] was 7.00 to 8.00; in assay [2], 7.00 to 8.00; in assay [3] it was 7.00 to 8.00; in assay [4] it was 6.00 to 7.00; in assay [5], 6.00 to 7.00.

For the compound `Cn1nncc1-c1ccc(Nc2cn(-c3c(Cl)cccc3Cl)nc2C(N)=O)cc1` [compound 48, 1-(2,6-dichlorophenyl)-4-((4-(1-methyl-1H-1,2,3-triazol-5-yl)phenyl)amino)-1H-pyrazole-3-carboxamide], the pIC50 in assay [1] was 6.00 to 7.00; in assay [2] it was 7.00 to 8.00; in assay [3] it was 6.00 to 7.00; in assay [4], 6.00 to 7.00; in assay [5], 6.00 to 7.00.

`NC(=O)c1nn(-c2c(F)cccc2Cl)cc1Nc1ccc(C(=O)N2CC3(CCC3)C2)cc1` [compound 54, 4-((4-(2-azaspiro[3.3]heptane-2-carbonyl)phenyl)amino)-1-(2-chloro-6-fluorophenyl)-1H-pyrazole-3-carboxamide]: the pIC50 in assay [1] was 6.00 to 7.00; in assay [2] it was 7.00 to 8.00; in assay [3], 6.00 to 7.00; in assay [4], 6.00 to 7.00; in assay [5], 6.00 to 7.00.

In the case of `Cc1ccnnc1-c1ccc(Nc2cn(-c3c(F)cccc3Cl)nc2C(N)=O)cc1` [compound 56, 1-(2-chloro-6-fluorophenyl)-4-((4-(4-methylpyridazin-3-yl)phenyl)amino)-1H-pyrazole-3-carboxamide], the pIC50 in assay [1] is 6.00 to 7.00; in assay [2] it was 7.00 to 8.00; in assay [3], 6.00 to 7.00; in assay [4], 7.00 to 8.00; in assay [5], 7.00 to 8.00.

`NC(=O)c1nn(-c2c(F)cccc2C(F)(F)F)cc1Nc1ccc(C(=O)N2CC3(CCC3)C2)cc1` [compound 61, 4-((4-(2-azaspiro[3.3]heptane-2-carbonyl)phenyl)amino)-1-(2-fluoro-6-(trifluoromethyl)phenyl)-1H-pyrazole-3-carboxamide]: the pIC50 in assay [1] is 6.00 to 7.00; in assay [2], 7.00 to 8.00; in assay [3], 6.00 to 7.00; in assay [4], 6.00 to 7.00; in assay [5] it was 6.00 to 7.00.

As for `NC(=O)c1nn(-c2c(F)cccc2Cl)cc1Nc1ccc(C(=O)N2CCOCC2)cn1` [compound 68, 1-(2-chloro-6-fluorophenyl)-4-((5-(morpholine-4-carbonyl)pyridin-2-yl)amino)-1H-pyrazole-3-carboxamide], the pIC50 in assay [1] was 6.00 to 7.00; in assay [2], 7.00 to 8.00; in assay [3], 6.00 to 7.00; in assay [4], 6.00 to 7.00; in assay [5], 6.00 to 7.00.

Take `NC(=O)c1nn(-c2c(Cl)cccc2Cl)cc1Nc1ccc(C(=O)N2CCCCC2)cc1` [compound 82, 1-(2,6-dichlorophenyl)-4-((4-(piperidine-1-carbonyl)phenyl)amino)-1H-pyrazole-3-carboxamide]: the pIC50 in assay [1] was 6.00 to 7.00; in assay [2] it was 7.00 to 8.00; in assay [3], 7.00 to 8.00; in assay [4], 6.00 to 7.00; in assay [5], 6.00 to 7.00.

For `NC(=O)c1nn(-c2c(Cl)cccc2Cl)cc1Nc1ccc(C(=O)N2CCN(CC3CC3)CC2)cc1` [compound 86, 4-((4-(4-(cyclopropylmethyl)piperazine-1-carbonyl)phenyl)amino)-1-(2,6-dichlorophenyl)-1H-pyrazole-3-carboxamide], the pIC50 is 6.00 to 7.00 in assay [1]; > 8.00 in assay [2]; 7.00 to 8.00 in assay [3]; 6.00 to 7.00 in assay [4]; 6.00 to 7.00 in assay [5].

For the compound `NC(=O)c1nn(-c2c(F)cccc2Cl)cc1Nc1ccc(-n2ncc3c2CCOC3)cc1` [compound 208, 1-(2-chloro-6-fluorophenyll)-4-((4-(6,7-dihydropyrano[4,3-c]pyrazol-1(4H)-yl)phenyl)amino)-1H-pyrazole-3-carboxamide], the pIC50 in assay [1] was 6.00 to 7.00; in assay [2] it was 7.00 to 8.00; in assay [3], 7.00 to 8.00; in assay [4], 7.00 to 8.00; in assay [5], 7.00 to 8.00.

As to `Cn1ccnc1-c1ccc(Nc2cn(-c3c(Cl)cccc3Cl)nc2C(N)=O)cc1` [compound 225, 1-(2,6-dichlorophenyl)-4-((4-(1-methyl-1H-imidazol-2-yl)phenyl)amino)-1H-pyrazole-3-carboxamide], the pIC50 in assay [1] is 6.00 to 7.00; in assay [2] it was 7.00 to 8.00; in assay [3], 7.00 to 8.00; in assay [4], 6.00 to 7.00; in assay [5], 6.00 to 7.00.

For the compound `NC(=O)c1nn(-c2c(F)cccc2Cl)cc1Nc1ccc(C(=O)N2CCCCC2)cc1` [compound 228, 1-(2-chloro-6-fluorophenyl)-4-((4-(piperidine-1-carbonyl)phenyl)amino)-1H-pyrazole-3-carboxamide], the pIC50 is 6.00 to 7.00 in assay [1]; 7.00 to 8.00 in assay [2]; 7.00 to 8.00 in assay [3]; 6.00 to 7.00 in assay [4]; 6.00 to 7.00 in assay [5].

On to `NC(=O)c1nn(-c2c(Cl)cccc2Cl)cc1Nc1ccc(-c2nccn2CC(F)F)cc1` [compound 230, 1-(2,6-dichlorophenyl)-4-((4-(1-(2,2-difluoroethyl)-1H-imidazol-2-yl)phenyl)amino)-1H-pyrazole-3-carboxamide], for which the pIC50 is 6.00 to 7.00 in assay [1]; > 8.00 in assay [2]; 7.00 to 8.00 in assay [3]; 6.00 to 7.00 in assay [4]; 6.00 to 7.00 in assay [5].

Regarding `Cc1ccn(-c2ccc(Nc3cn(-c4c(F)cccc4Cl)nc3C(N)=O)cc2)n1` [compound 232, 1-(2-chloro-6-fluorophenyl)-4-((4-(3-methyl-1H-pyrazol-1-yl)phenyl)amino)-1H-pyrazole-3-carboxamide], the pIC50 in assay [1] was 6.00 to 7.00; in assay [2], 7.00 to 8.00; in assay [3] it was 7.00 to 8.00; in assay [4] it was 6.00 to 7.00; in assay [5], 6.00 to 7.00.

Source of the values: patent publication US20230373985A1 (Origenis Gmbh, priority 2020, published 2023).
